{"source": "patent US20070128217A1", "about": "(priority 2003, published 2007)", "key": {"[1]": {"tested_on": "antibodies in sera from SARS patients (sera 1a, 1b, 2, 6, 37, 62, London, SARS-yellow, SARS-green)", "assay_type": "binding, human", "parameters": "Binding of serum 6 to linear peptides of protein X1 of SARS-CoV Urbani / Binding of serum 37 to linear peptides of protein X1 of SARS-CoV Urbani / Binding of serum 6 to looped/cyclic peptide (PEPSCAN-ELISA) / Binding of serum 37 to looped/cyclic peptide (PEPSCAN-ELISA) / Binding of serum 37 to looped/cyclic peptides of protein X1 of SARS-CoV Urbani / Binding of serum 6 to linear peptides of protein X2 / Binding of serum 37 to linear peptides of protein X2 / Binding of serum 37 to looped/cyclic peptides of protein X2 of SARS-CoV Urbani / Binding of serum 6 to linear peptides of protein M of SARS-CoV Urbani / Binding of serum 37 to linear peptides of protein M of SARS-CoV Urbani / Binding of serum 6 to looped/cyclic peptides of protein M of SARS-CoV Urbani / Binding of serum 37 to looped/cyclic peptides of protein M of SARS-CoV Urbani / Binding of serum 6 to linear peptides of protein X3 of SARS-CoV Urbani / Binding of serum 37 to linear peptides of protein X3 of SARS-CoV Urbani / Binding of serum 37 to looped/cyclic peptides of protein X3 of SARS-CoV Urbani / Binding of serum 6 to linear peptides of protein X4 of SARS-CoV Urbani / Binding of serum 37 to linear peptides of protein X4 of SARS-CoV Urbani / Binding of serum 37 to looped/cyclic peptides of protein X4 of SARS-CoV Urbani / Binding of serum 6 to linear peptides of protein X5 of SARS-CoV Urbani / Binding of serum 37 to linear peptides of protein X5 of SARS-CoV Urbani / Binding of serum 37 to looped/cyclic peptides of protein X5 of SARS-CoV Urbani / Binding of serum 6 to linear peptides of protein N of SARS-CoV Urbani / Binding of serum 37 to linear peptides of protein N of SARS-CoV Urbani / Binding of serum 6 to linear peptide (PEPSCAN-ELISA) / Binding of serum 1a to looped/cyclic peptides of protein N of SARS-CoV Urbani / Binding of serum 1b to looped/cyclic peptides of protein N of SARS-CoV Urbani / Binding of serum 2 to looped/cyclic peptides of protein N of SARS-CoV Urbani / Binding of serum 6 to looped/cyclic peptides of protein N of SARS-CoV Urbani / Binding of serum 37 to looped/cyclic peptides of protein N of SARS-CoV Urbani / Binding of serum 62 to looped/cyclic peptides of protein N of SARS-CoV Urbani / Binding of serum London to looped/cyclic peptides of protein N of SARS-CoV Urbani / Binding of serum SARS-green to looped/cyclic peptides of protein N of SARS-CoV Urbani: unit not given here"}, "[2]": {"tested_on": "control sera (pooled serum of ten healthy LUMC hospital workers; commercial negative donor pooled serum from the Dutch bloodbank)", "assay_type": "binding, human", "parameters": "Binding of Control serum LUMC to linear peptides / Binding of Control serum Blood-bank to linear peptides / Binding of Control serum LUMC to looped peptides / Binding of Control Serum Blood-Bank to Looped peptides / Binding of Control serum LUMC to linear peptides of the protein M of SARS-CoV Urbani / Binding of Control serum Blood-bank to linear peptides of the protein M of SARS-CoV Urbani / Binding of Control serum LUMC to looped peptides of the protein M of SARS-CoV Urbani / Binding of Control Serum Blood-Bank to Looped peptides of the protein M of SARS-CoV Urbani: unit not given here"}, "[3]": {"tested_on": "rabbit serum obtained by immunizing a rabbit with the SARS-CoV strain Frankfurt 1", "assay_type": "binding", "parameters": "Binding of a rabbit serum to linear peptides / Binding of a rabbit serum to looped peptides / Rabbit serum linear peptides / Rabbit serum looped peptides / Binding of a rabbit serum to linear peptides of protein N of SARS-CoV Urbani (Rabbit serum linear peptides) / Binding of a rabbit serum to looped/cyclic peptides of protein N of SARS-CoV Urbani (Rabbit serum looped peptides): unit not given here"}}, "data": [{"sequence": "HATATIPLQASLPFG", "values": [{"measurement": "Binding of serum 1a to linear peptides of protein X1 of SARS-CoV Urbani", "setting": "[1]", "value": 0.9}, {"measurement": "Binding of serum 1a to looped/cyclic peptide (PEPSCAN-ELISA)", "setting": "[1]", "value": 0.8}, {"measurement": "Binding of serum 1b to linear peptides of protein X1 of SARS-CoV Urbani", "setting": "[1]", "value": 0.8}, {"measurement": "Binding of serum 1b to looped/cyclic peptide (PEPSCAN-ELISA)", "setting": "[1]", "value": 0.6}, {"measurement": "Binding of serum 2 to linear peptides of protein X1 of SARS-CoV Urbani", "setting": "[1]", "value": 0.6}, {"measurement": "Binding of serum 2 to looped/cyclic peptide (PEPSCAN-ELISA)", "setting": "[1]", "value": 0.5}, {"measurement": "Binding of serum 6 to linear peptides of protein X1 of SARS-CoV Urbani", "setting": "[1]", "value": 0.6}, {"measurement": "Binding of serum 6 to looped/cyclic peptide (PEPSCAN-ELISA)", "setting": "[1]", "value": 0.5}, {"measurement": "Binding of serum 37 to linear peptides of protein X1 of SARS-CoV Urbani", "setting": "[1]", "value": 0.8}, {"measurement": "Binding of serum 37 to looped/cyclic peptide (PEPSCAN-ELISA)", "setting": "[1]", "value": 0.6}, {"measurement": "Binding of serum 62 to linear peptides of protein X1 of SARS-CoV Urbani", "setting": "[1]", "value": 0.7}, {"measurement": "Binding of serum 62 to looped/cyclic peptide (PEPSCAN-ELISA)", "setting": "[1]", "value": 0.6}, {"measurement": "Binding of serum London to linear peptides of protein X1 of SARS-CoV Urbani", "setting": "[1]", "value": 0.3}, {"measurement": "Binding of serum London to looped/cyclic peptide (PEPSCAN-ELISA)", "setting": "[1]", "value": 0.2}, {"measurement": "Binding of serum SARS-green to linear peptides of protein X1 of SARS-CoV Urbani", "setting": "[1]", "value": 0.2}, {"measurement": "Binding of serum SARS-green to looped/cyclic peptide (PEPSCAN-ELISA)", "setting": "[1]", "value": 0.4}, {"measurement": "Binding of serum SARS-yellow to linear peptides of protein X1 of SARS-CoV Urbani", "setting": "[1]", "value": 0.4}, {"measurement": "Binding of serum SARS-yellow to looped/cyclic peptide (PEPSCAN-ELISA)", "setting": "[1]", "value": 0.4}, {"measurement": "Binding of Control Serum Blood-Bank to Looped peptides", "setting": "[2]", "value": 0.7}, {"measurement": "Binding of Control serum Blood-bank to linear peptides", "setting": "[2]", "value": 0.8}, {"measurement": "Binding of Control serum LUMC to linear peptides", "setting": "[2]", "value": 0.6}, {"measurement": "Binding of Control serum LUMC to looped peptides", "setting": "[2]", "value": 0.7}, {"measurement": "Binding of a rabbit serum to linear peptides", "setting": "[3]", "value": 0.1}, {"measurement": "Binding of a rabbit serum to looped peptides", "setting": "[3]", "value": 0.5}]}, {"sequence": "STALQELLIQQWIQF", "values": [{"measurement": "Binding of serum 1a to linear peptides of protein X2", "setting": "[1]", "value": 0.6}, {"measurement": "Binding of serum 1a to looped/cyclic peptides of protein X2 of SARS-CoV Urbani", "setting": "[1]", "value": 0.6}, {"measurement": "Binding of serum 1b to linear peptides of protein X2", "setting": "[1]", "value": 0.4}, {"measurement": "Binding of serum 1b to looped/cyclic peptides of protein X2 of SARS-CoV Urbani", "setting": "[1]", "value": 0.5}, {"measurement": "Binding of serum 2 to linear peptides of protein X2", "setting": "[1]", "value": 0.3}, {"measurement": "Binding of serum 2 to looped/cyclic peptides of protein X2 of SARS-CoV Urbani", "setting": "[1]", "value": 0.4}, {"measurement": "Binding of serum 6 to linear peptides of protein X2", "setting": "[1]", "value": 0.3}, {"measurement": "Binding of serum 6 to looped/cyclic peptides of protein X2 of SARS-CoV Urbani", "setting": "[1]", "value": 0.2}, {"measurement": "Binding of serum 37 to linear peptides of protein X2", "setting": "[1]", "value": 0.5}, {"measurement": "Binding of serum 37 to looped/cyclic peptides of protein X2 of SARS-CoV Urbani", "setting": "[1]", "value": 0.4}, {"measurement": "Binding of serum 62 to linear peptides of protein X2", "setting": "[1]", "value": 0.6}, {"measurement": "Binding of serum 62 to looped/cyclic peptides of protein X2 of SARS-CoV Urbani", "setting": "[1]", "value": 0.6}, {"measurement": "Binding of serum London to linear peptides of protein X2", "setting": "[1]", "value": 0.4}, {"measurement": "Binding of serum London to looped/cyclic peptides of protein X2 of SARS-CoV Urbani", "setting": "[1]", "value": 0.2}, {"measurement": "Binding of serum SARS-green to linear peptides of protein X2", "setting": "[1]", "value": 0.5}, {"measurement": "Binding of serum SARS-green to looped/cyclic peptides of protein X2 of SARS-CoV Urbani", "setting": "[1]", "value": 0.3}, {"measurement": "Binding of serum SARS-yellow to linear peptides of protein X2", "setting": "[1]", "value": 0.3}, {"measurement": "Binding of serum SARS-yellow to looped/cyclic peptides of protein X2 of SARS-CoV Urbani", "setting": "[1]", "value": 0.5}, {"measurement": "Binding of Control Serum Blood-Bank to Looped peptides", "setting": "[2]", "value": 0.6}, {"measurement": "Binding of Control serum Blood-bank to linear peptides", "setting": "[2]", "value": 0.6}, {"measurement": "Binding of Control serum LUMC to linear peptides", "setting": "[2]", "value": 0.3}, {"measurement": "Binding of Control serum LUMC to looped peptides", "setting": "[2]", "value": 0.7}, {"measurement": "Binding of a rabbit serum to linear peptides", "setting": "[3]", "value": 0.3}, {"measurement": "Binding of a rabbit serum to looped peptides", "setting": "[3]", "value": 0.4}]}, {"sequence": "IIMRCWLCWKCKSKN", "values": [{"measurement": "Binding of serum 1a to looped/cyclic peptide (PEPSCAN-ELISA)", "setting": "[1]", "value": 0.5}, {"measurement": "Binding of serum 1b to looped/cyclic peptide (PEPSCAN-ELISA)", "setting": "[1]", "value": 0.3}, {"measurement": "Binding of serum 2 to looped/cyclic peptide (PEPSCAN-ELISA)", "setting": "[1]", "value": 0.3}, {"measurement": "Binding of serum 6 to looped/cyclic peptide (PEPSCAN-ELISA)", "setting": "[1]", "value": 0.5}, {"measurement": "Binding of serum 37 to looped/cyclic peptide (PEPSCAN-ELISA)", "setting": "[1]", "value": 0.4}, {"measurement": "Binding of serum 62 to looped/cyclic peptide (PEPSCAN-ELISA)", "setting": "[1]", "value": 0.5}, {"measurement": "Binding of serum London to looped/cyclic peptide (PEPSCAN-ELISA)", "setting": "[1]", "value": 0.2}, {"measurement": "Binding of serum SARS-green to looped/cyclic peptide (PEPSCAN-ELISA)", "setting": "[1]", "value": 0.2}, {"measurement": "Binding of serum SARS-yellow to looped/cyclic peptide (PEPSCAN-ELISA)", "setting": "[1]", "value": 0.3}, {"measurement": "Recognition of the peptide by sera of SARS-CoV infected individuals, and form (linear, looped/cyclic) in which it is recognized", "setting": "[1]", "value": "recognized in linear form"}, {"measurement": "Binding of Control Serum Blood-Bank to Looped peptides", "setting": "[2]", "value": 0.6}, {"measurement": "Binding of Control serum Blood-bank to linear peptides", "setting": "[2]", "value": 0.5}, {"measurement": "Binding of Control serum LUMC to linear peptides", "setting": "[2]", "value": 0.4}, {"measurement": "Binding of Control serum LUMC to looped peptides", "setting": "[2]", "value": 0.6}, {"measurement": "Binding of a rabbit serum to linear peptides", "setting": "[3]", "value": 0.2}, {"measurement": "Binding of a rabbit serum to looped peptides", "setting": "[3]", "value": 0.7}]}]}
